According to patent US7504416B2, “4-substituted quinolines as antitumor agents” (AstraZeneca AB, priority 2000, dated 2009):

Test system: HT29 human colon tumour cells
Assay: Cell proliferation assay
Assay type: cell-based
Details: HT-29, 72 hours incubation
Method: Cell Proliferation Assays
Cells were seeded into multi-well plates at 20 000-40 000 cells/ml in growth medium containing 5% FCS and incubated overnight at 37° C. The compounds were prepared in fresh medium at an appropriate concentration and added to the wells containing the cells. These were then incubated for a further 72 hours. Cells were then either removed from the wells by incubating with trypsin/EDTA and counted using a Coulter counter, or treated with XTT/PMS in PBSA and optical densities read at 450 nm. […] For example, Compound No 3 gave an IC50 of 1.0 μM in HT29 human colon tumour cells.

IC50: 1000 nM
SMILES: COc1cc2ncc(C#N)c(Nc3ccc(Oc4ccccc4OCC(=O)NCC(=O)N4CCN(C)CC4)cc3)c2cc1OC [Compound 3]
